Values joined by “and” are separate entries in the source; they are usually repeats but may differ in a detail not shown here. Equal values may be shown once. Marks after values point to notes of the source that are not given here.
Legend:
diabetic wistar rat = experiment: Example 2: ulcer area reduction in streptozocin-diabetized rats, subcutaneous route; type: in vivo; details: for percentage of area reduction of day 9 with respect to day 1: single ulcers
Protocol: To perform the present embodiment, doses of 45 mg/kg of streptozocin (STZ) were administered by intramuscular route to make a batch of 8 rats diabetic (Andrades Ja et al. Engineering, expression, and renaturation of a collagen-targeted human bFGF fusion protein. Growth Factors. 2001; 18(4):261-75).
Male wistar rats with a average weight of 250 g per rat were used, to which a dose of 11.25 mg STZ per rat was administered by means of the intramuscular administration of 100 μL in the left paw of each rat.
Sweetened water (350 mg/dL) was administered to all the rats for three days and glucose measurements were performed with a glucometer every day to verify that the rats were indeed diabetized. For this reason, before the administration and at time 4 days after the administration of streptozocin, a drop of blood was extracted from the rat tail vein for the subsequent quantification of glycemia and see whether they were diabetic before starting the ulceration assay.
Once the rats were diabetized, 2 ulcers with a diameter of 1 cm each were made on them using a scalpel. An anesthesia/analgesia protocol with ketamine/xylazine was followed according to the recommendations of the book: “Handbook of laboratory animal management and welfare”:
The ulcers were treated with water and cleaned for 9 days after the ulceration.
The administrations of bemiparin and of fondaparinux were performed by means of a bemiparin solution by subcutaneous route (100 μL) for the treatment of the ulcers.
The diameter of the ulcer was quantified by means of tracing the ulcer onto a transparency to see the progress of the healing.

diabetic rat wound model = experiment: Wound healing by oral route in diabetic rat; type: in vivo, Wistar rat; details: 14 days; for histopathological Grade / histopathological Score: oral, sacrifice day 15, fondaparinux 10 mg/kg, bemiparin 100 mg/kg
Protocol: Both treatments were administered by oral route at an administration volume of 10 mL/kg. In the case of fondaparinux, a dose of 10 mg/kg was administered and in the case of bemiparin, 100 mg/kg were administered.
The control group only received the carrier used to prepare the assay product. The carrier for the preparation of the assay product is a 1.5% (w/v) bicarbonate solution in water for injections. It was verified that the pH of the formulations prepared was above 8.00.
At the beginning of the assay, diabetes mellitus was induced in all the animals. To that end, they received a single intraperitoneal injection of streptozotocin (60 mg/kg, 10 mL/kg). After 72 hours, the establishment of the diabetes was verified by analyzing the blood glucose levels. To that end, animals were anesthetized with isoflurane and 0.8 mL of blood were extracted from the retroorbicular plexus. The animals had to have values of glucose greater than 15 mmol/L. A week after the induction of the diabetes, the wound was made.
The animals were anesthetized (ketamine+xylazine, 90+10 mg/kg, i.m.). Their back was shaved and cleaned with disinfectant (povidone-iodine) and the area where the wound would be made was marked by means of a template to homogenize its position in all the animals.
The wound was made by means of a circular incision with a diameter of approximately 1.5 cm, the skin of the mid-dorsal area being removed. 1 mL/animal of physiological serum was administered by i.p. route after the intervention. […]. Analgesia (paracetamol, 1 mg/mL) was provided in drinking water for the 7 days after the intervention.
On the day after making the wound and for a total of 14 days, the assigned treatments were administered to the animals. The follow-up of the animals was performed, the evolution of the wounds being macroscopically assessed twice a week, by means of digital photography of the wound. The body weight of the animals was also recorded twice a week.
On the day after the last administration, the animals were sacrificed with anesthesia overdose (pentobarbital sodium). The area where the wound was made was extracted. The front half was frozen in liquid nitrogen and stored in a freezer (−80±5° C.) and the rear half was stored in formol for its subsequent histological processing.
The wound area was calculated as the percentage of reduction thereof to evaluate the degree of curing thereof, by means of the standardized formula: […]
On the following day and for a total of 14 days, 10 mL/kg were administered to the animals by oral route.
The follow-up of the animals was performed, the evolution of the wounds being macroscopically assessed twice a week, by means of digital photography of the wound. The body weight of the animals was also recorded twice a week.
The animals were sacrificed on day 15 of the study and the area of the skin where the wound was caused was stored in formol to perform a histopathological evaluation (hematoxylin-eosin staining).
Each section was given a histological score in the grade I to grade V range, where I means uncured wound and V means completely epithelialized wound. The score is based on the degree of cell invasion, the formation of granulation tissue, […]

[1] = tested on: C57BL/KsJ-db/db diabetic mouse; experiment: Example 4: wound healing in genetically diabetic mouse, topical route; type: in vivo; details: topical 1000 IU/kg; for histopathological Grade / histopathological Score: 14 days, sacrifice day 15
Protocol: In this case, topical formulations were prepared for the direct administration on the ulcers, the carriers of which formulations are formed by Carbopol, Phenonip®, Span 80, Glycerol and water.
The ulceration and measurement of the area were performed as detailed in the subcutaneous administration assays. On the day after the incision and for a total of 14 days, the assigned treatments, 0.15 ml/animal by topical route in the back of the animal, above the wound, were administered to the animals.
The follow-up of the animals was performed up to a period of 14 days (average time necessary for the healing of the wounds in this animal model). The assessment was performed by means of digital photography of the wound and subsequent image analysis.
The animals were sacrificed on the day after the last administration (day 15) and the area where the wound was made was extracted. The rear portion of the area containing the wound was stored in formol for its histological processing (hematoxylin-eosin staining).
The results were based on the score given by the method of Greenhalgh et al. (1990). Each block was given a histological score from 1 to 15, where 1 means uncured wound and 15 means completely epithelialized wound. The score is based on the degree of cell invasion, the formation of granulation tissue, vascularization and epithelialization: […]

[2] = 108 IU rats, Batch 2, subcutaneous
[3] = 217 IU rats, Batch 1, subcutaneous
[4] = Fondaparinux rats, Batch 3, 0.22 mg per rat, subcutaneous

Compound	percentage of area reduction of day 9 with respect to day 1, Average (diabetic wistar rat; [2]) [%]	percentage of area reduction of day 9 with respect to day 1, Average (diabetic wistar rat; [3]) [%]	macroscopic healing process (diabetic wistar rat; day 9 with respect to day 0, bemiparin 217 IU)	percentage of area reduction of day 9 with respect to day 1 (diabetic wistar rat; [2])	percentage of area reduction of day 9 with respect to day 1 (diabetic wistar rat; [3])	evolution of the wound area (FIG. 11) (diabetic rat wound model; oral 100 mg/kg)	histopathological Grade (diabetic rat wound model)	histopathological Score (diabetic rat wound model)	histopathological Grade [1]	histopathological Score [1]	area reduction ([1]; end of the treatment (14 days))	percentage of area reduction of day 9 with respect to day 1, Average (diabetic wistar rat; [4]) [%]	percentage of area reduction of day 9 with respect to day 1 (diabetic wistar rat; [4])
Bemiparin	24.39 ± 7.47	27.35 ± 7.25	macroscopically much better than in the case of fondaparinux	16.96% and 13.26% and 19.14% and 19.71%	29.31% and 31.85% and 28.40% and 24.89%	heal much better than those treated with fondaparinux	IV (10-12 Thick and vascular granulation tissue dominated by fibroblasts and extensive collagen deposition, the epithelium covers the wound partially or completely.)	11.3	III (7-9 Moderately thick granulation tissue. It can vary from being dominated by inflammatory cells to greater presence of fibroblasts and collagen deposition, extensive neovascularization, minimum to moderate epithelial migration.)	8.7	greater than 60%		
CO[C@H]1O[C@H](COS(=O)(=O)O)[C@@H](O[C@@H]2O[C@@H](C(=O)O)[C@@H](O[C@H]3O[C@H](COS(=O)(=O)O)[C@@H](O[C@@H]4O[C@H](C(=O)O)[C@@H](O[C@H]5O[C@H](COS(=O)(=O)O)[C@@H](O)[C@H](O)[C@H]5NS(=O)(=O)O)[C@H](O)[C@H]4O)[C@H](OS(=O)(=O)O)[C@H]3NS(=O)(=O)O)[C@H](O)[C@H]2OS(=O)(=O)O)[C@H](O)[C@H]1NS(=O)(=O)O [Fondaparinux]							III (7-9 Moderately thick granulation tissue. It can vary from being dominated by inflammatory cells to greater presence of fibroblasts and collagen deposition, extensive neovascularization, minimum to moderate epithelial migration.)	9.5	III (7-9 Moderately thick granulation tissue. It can vary from being dominated by inflammatory cells to greater presence of fibroblasts and collagen deposition, extensive neovascularization, minimum to moderate epithelial migration.)	8.6		20.70	17.00%* and 20.69% and 21.32% and 23.81%
